Data on twelve compounds can be found in patent US11608343B2, “Substituted pyrimido[5,4-d]pyrimidines as HER2 inhibitors” (Boehringer Ingelheim International GmbH, priority 2020, dated 2023).

Holding throughout (assay type): cell-based
Experiment [1] relates to NCI-H2170 (HER2 wild type) cells. In words: Tumor cell line proliferation assay, NCI-H2170 (HER2 wild type), CellTiter-Glo. Conditions: Homo sapiens, 72 h, read-out: GI50 NCI H-2170 HER2 wt amp. How it is done: (§1) For proliferation assays, NCI-H2170 (HER2 wild type), NCI-H2170 HER2 YVMA and EGFR WT dependent A431 cells are used. NCI-H2170 HER2 YVMA or NCI-H2170 cells are seeded into 96-well plates at 750 cells/60 μL in growth media (RPMI ATCC+10% FCS, +Penicillin/Streptomycin). […] Compounds are added by using a HP D3000 Digital Dispenser one day after plating the cells. All treatments are performed in technical triplicates. Treated cells are incubated for 72 h at 37° C. with 5% CO2. CellTiter-Glo® Luminescent Cell Viability Assay (Promega) is performed and chemoluminescence is measured by using the multilabel Plate Reader VICTOR X4. The raw data are imported into and analyzed with the Boehringer Ingelheim proprietary software MegaLab (curve fitting based on the program PRISM, GraphPad Inc.).

The test system of experiment [2] is Ba/F3 cells HER2 mutants (YVMA). The experiment can be described thus: Ba/F3 proliferation assay, HER2 YVMA, CellTiter-Glo. The settings on record: Mus musculus, BaF3, 72 h. How it is done:
(§2) Ba/F3 Cell Model Generation and Proliferation Assays
(§3) Plasmids containing HER2 mutants and EGFR WT were obtained from GeneScript. To generate EGFR/HER2-dependent Ba/F3 models, Ba/F3 cells are transduced with retroviruses containing vectors that harbor EGFR WT, HER2 WT or HER2 mutants (YVMA). Platinum-E cells (Cell Biolabs) are used for retrovirus packaging. Retrovirus is added to Ba/F3 cells. To ensure infection, 4 μg/mL polybrene is added and cells are spin-infected. Infection efficiency is confirmed by measuring GFP-positive cells using a cell analyzer. Cells with an infection efficiency of 10% to 20% are further cultivated and puromycin selection with 1 μg/mL is initiated. As a control, parental Ba/F3 cells are used to assess the selection status. Selection is considered successful when parental Ba/F3 cells cultures die. To evaluate the transforming potential of HER2 mutations, the growth medium is no longer supplemented with IL-3. Ba/F3 cells harboring the empty vector are used as a control. A switch from IL-3 to EGF is performed for Ba/F3 cells expressing EGFR WT known for its dependency on EGF ligand. Approximately ten days before conducting the experiments, puromycin is left out. For proliferation assays (data in tables 10 and 12), Ba/F3 cells are seeded into 96-well plates at 5×10^3 cells/100 μL in growth media. Compounds are added by using a HP D3000 Digital Dispenser. All treatments are performed in technical triplicates. Treated cells are incubated for 72 h at 37° C. with 5% CO2. A CellTiter-Glo® Luminescent Cell Viability Assay (Promega) is performed and chemoluminescence is measured by using the multilabel Plate Reader VICTOR X4. The raw data are imported into and analyzed with the Boehringer Ingelheim proprietary software MegaLab (curve fitting based on the program PRISM, GraphPad Inc.).
On the technique in general: In ATP-based viability assays light output follows the ATP content of the culture.

The target in experiment [3] is T1, HER2 YVMA (Homo sapiens, UniProt P04626, INS775YVMA).
T1 construct: expressed in transfected cells; host or cells: human HEK cells, retroviral transduction, doxycycline-inducible expression
T1 sequence (P04626 with tags, fused parts or gaps INS775YVMA): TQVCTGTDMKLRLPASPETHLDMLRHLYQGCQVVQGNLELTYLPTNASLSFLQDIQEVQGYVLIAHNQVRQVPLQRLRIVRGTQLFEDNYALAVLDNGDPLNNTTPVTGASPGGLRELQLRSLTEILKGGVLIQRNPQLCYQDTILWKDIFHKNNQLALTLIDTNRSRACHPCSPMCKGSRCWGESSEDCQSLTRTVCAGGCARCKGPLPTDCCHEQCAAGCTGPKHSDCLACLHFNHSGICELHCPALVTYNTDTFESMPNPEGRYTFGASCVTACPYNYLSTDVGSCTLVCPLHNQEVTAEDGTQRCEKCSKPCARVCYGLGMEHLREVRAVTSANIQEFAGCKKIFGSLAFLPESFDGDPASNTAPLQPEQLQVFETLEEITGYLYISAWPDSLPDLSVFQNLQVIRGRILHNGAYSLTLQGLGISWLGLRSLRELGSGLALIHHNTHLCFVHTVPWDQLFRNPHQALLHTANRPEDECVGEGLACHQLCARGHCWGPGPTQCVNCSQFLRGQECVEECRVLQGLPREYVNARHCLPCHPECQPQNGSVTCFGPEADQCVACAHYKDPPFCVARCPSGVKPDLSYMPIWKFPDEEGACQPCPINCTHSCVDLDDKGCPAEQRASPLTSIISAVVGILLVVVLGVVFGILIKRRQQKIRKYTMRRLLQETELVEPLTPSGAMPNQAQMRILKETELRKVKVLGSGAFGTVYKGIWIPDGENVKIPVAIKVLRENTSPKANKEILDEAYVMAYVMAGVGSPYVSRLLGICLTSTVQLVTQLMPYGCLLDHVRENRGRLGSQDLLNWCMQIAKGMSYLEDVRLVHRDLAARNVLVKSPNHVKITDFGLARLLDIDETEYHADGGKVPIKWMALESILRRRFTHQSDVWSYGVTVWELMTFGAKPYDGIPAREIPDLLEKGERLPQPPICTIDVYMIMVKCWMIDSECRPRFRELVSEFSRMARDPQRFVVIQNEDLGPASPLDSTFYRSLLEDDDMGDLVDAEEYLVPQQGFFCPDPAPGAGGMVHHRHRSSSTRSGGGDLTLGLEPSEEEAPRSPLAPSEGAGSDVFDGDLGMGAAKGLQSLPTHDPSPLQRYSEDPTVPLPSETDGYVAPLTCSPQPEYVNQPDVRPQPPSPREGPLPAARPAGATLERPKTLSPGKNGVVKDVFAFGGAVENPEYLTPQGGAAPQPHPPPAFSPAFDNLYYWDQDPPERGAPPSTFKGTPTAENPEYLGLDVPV
In words: pHER2 (ERBB2) YVMA assay: phosphorylation of HER2 YVMA at Tyr1221/1222 in HEK cells (AlphaScreen Surefire). Conditions: doxycycline induced, 4 h with compound. Here is the method: For the assay, HEK HER2 YVMA cells are seeded in MEM medium with 10% FBS. 4 hours prior to compound addition, HER2 YVMA expression is induced using 1 μg/mL Doxycycline. […] Subsequently, 60.000 cells/well in 60 μL are added. Cells are incubated with compound for 4 h at 37° C. […] The mixture is incubated at a temperature of 20-25° C. with shaking (700 rpm) for 20 min. After centrifugation, 4 μL of the lysate are transferred to Proxiplates. […] Plates are shaken for 1 min (1400 rpm) and incubated for 2 h at a temperature of 20-25° C. in the dark. […] Plates are shaken for 1 min (1400 rpm) and incubated for 2 h at a temperature of 20-25° C. in the dark. Plates are subsequently analyzed using an Envision reader platform. […] IC50 values are computed from these values in the MEGASTAR IC50 application using a 4 parametric logistic model. […] The results of the assay are provided as IC50 values.
(Alpha assays give light when donor and acceptor beads are brought close together.)

Experiment [4] has as its system Ba/F3 cells HER2 WT. In words: Ba/F3 proliferation assay, HER2 WT, CellTiter-Glo. Conditions: Mus musculus, BaF3, 72 h. How it is done:
as §2, §3

Experiment [5] has as its system EGFR WT dependent A431 cells. The experiment can be described thus: Tumor cell line proliferation assay, EGFR WT dependent A431 cells, CellTiter-Glo. The settings on record: Homo sapiens, A-431, 72 h, read-out: GI50 A431 EGFR wt amp. How it is done: as §1
The subject of experiment [6] is Ba/F3 cells expressing EGFR WT. In words: Ba/F3 proliferation assay, EGFR WT (EGF dependent), CellTiter-Glo. Conditions: Mus musculus, BaF3, EGF instead of IL-3, 72 h, read-out: GI50 BAF3 EGF dep. How it is done: as §2, §3
Experiment [7] has as its system NCI-H2170 HER2 YVMA cells. The experiment can be described thus: Tumor cell line proliferation assay, NCI-H2170 HER2 YVMA, CellTiter-Glo. The settings on record: Homo sapiens, 72 h, read-out: GI50 NCI H-2170 HER2 YVMA.
Source text: HER2 YVMA Tumor Cell Line Model Generation and Proliferation Assays
Homology-directed genome engineering is employed to insert a 12 nucleotide sequence encoding YVMA into Exon 20 of the genomic HER2 locus in NCI-H2170 cells. […] The DNA template containing the HER2 exon 20 YVMA insertion variant was obtained from GenScript. PCR followed by Sanger sequencing is used to confirm the presence of the 12-nucleotide insertion in HER2 Exon 20 resulting in the YVMA amino acid duplication.
as §1

Experiment [8] concerns the target T2, EGFR wild type (WT) (Homo sapiens, UniProt P00533).
T2 construct: expressed in transfected cells; host or cells: human HEK cells (ATCC CRL-1573), retroviral transduction
In words: pEGFR assay: phosphorylation of EGFR at Tyr1068 in HEK cells expressing EGFR WT (AlphaScreen Surefire). The settings on record: 4 h with compound. How it is done:
This assay quantifies the phosphorylation of EGFR at Tyr1068 and is used to measure the inhibitory effect of compounds on the transgenic EGFR wild type (WT) protein expressed in HEK cells.
Transduced cells are selected using puromycin. p-EGFR Tyr1068 is determined using the AlphaScreen Surefire pEGF Receptor (Tyr1068) Assay (PerkinElmer, TGRERS). For the assay, HEK EGFR WT cells are seeded in MEM medium with 10% FBS. […] Subsequently, 60.000 cells/well in 60 μL are added. Cells are incubated with compound for 4 h at 37° C. […] The mixture is incubated at a temperature of 20-25° C. with shaking (700 rpm) for 20 min. After centrifugation, 4 μL of the lysate are transferred to Proxiplates. […] Plates are shaken for 1 min (1400 rpm) and incubated for 2 h at a temperature of (20-25° C.) in the dark. […] Plates are shaken for 1 min (1400 rpm) and incubated for 2 h at a temperature of (20-25° C.) in the dark. Plates are subsequently analyzed using an Envision reader platform. […] IC50 values are computed from these values in the MEGASTAR IC50 application using a 4 parametric logistic model.
This cellular phospho-EGFR (pEGFR) compound dose-response assay quantifies the phosphorylation of EGFR at Tyr1068 in HEK cells expressing EGFR WT. The results of the assay are provided as IC50 values.

Bounds are passed on as bounds.

T2 sequence (P00533 25-1210): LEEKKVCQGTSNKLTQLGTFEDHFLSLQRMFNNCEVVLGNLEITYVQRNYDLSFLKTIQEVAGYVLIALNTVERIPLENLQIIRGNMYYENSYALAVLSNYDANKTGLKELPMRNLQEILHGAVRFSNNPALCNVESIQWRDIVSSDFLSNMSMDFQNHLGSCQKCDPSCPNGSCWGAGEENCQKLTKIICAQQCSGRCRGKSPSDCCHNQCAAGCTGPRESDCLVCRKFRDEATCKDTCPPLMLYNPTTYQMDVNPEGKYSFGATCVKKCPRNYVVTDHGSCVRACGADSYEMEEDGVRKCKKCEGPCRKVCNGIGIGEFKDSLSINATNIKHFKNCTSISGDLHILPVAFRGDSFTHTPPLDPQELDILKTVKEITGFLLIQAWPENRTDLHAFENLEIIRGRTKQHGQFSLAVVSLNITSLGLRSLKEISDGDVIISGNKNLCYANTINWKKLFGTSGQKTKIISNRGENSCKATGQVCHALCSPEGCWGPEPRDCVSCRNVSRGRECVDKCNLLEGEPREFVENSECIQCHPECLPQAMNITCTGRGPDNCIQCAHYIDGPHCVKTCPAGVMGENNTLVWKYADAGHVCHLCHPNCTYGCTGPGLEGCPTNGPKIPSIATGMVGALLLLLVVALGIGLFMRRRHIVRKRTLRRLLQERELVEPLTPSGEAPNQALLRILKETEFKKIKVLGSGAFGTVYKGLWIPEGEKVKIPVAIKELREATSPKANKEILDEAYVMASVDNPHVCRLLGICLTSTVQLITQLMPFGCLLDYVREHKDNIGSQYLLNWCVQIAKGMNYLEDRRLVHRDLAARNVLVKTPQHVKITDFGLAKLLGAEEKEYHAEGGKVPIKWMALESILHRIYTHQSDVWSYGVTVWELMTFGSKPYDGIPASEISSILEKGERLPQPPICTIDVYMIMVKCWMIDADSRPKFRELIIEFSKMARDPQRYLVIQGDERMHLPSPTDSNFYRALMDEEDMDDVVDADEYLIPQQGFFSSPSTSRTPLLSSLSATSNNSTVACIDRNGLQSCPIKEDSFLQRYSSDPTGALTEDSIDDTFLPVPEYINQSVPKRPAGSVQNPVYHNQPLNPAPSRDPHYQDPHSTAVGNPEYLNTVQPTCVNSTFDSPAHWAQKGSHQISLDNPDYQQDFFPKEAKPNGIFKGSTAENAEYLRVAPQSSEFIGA

As usually defined, the GI50 is the concentration at which growth is held to half of that of the control. As usually defined, the IC50 is the concentration needed to halve the response being measured. `C=CC(=O)N1CCC(Nc2ncc3ncnc(Nc4ccc(Oc5ccc6c(c5)ncn6C)c(C)c4)c3n2)CC1` [Example I-14]: the GI50 in experiment [1] was 0.01 µM; in experiment [2], 0.017 µM; in experiment [4], 0.002 µM; in experiment [5], greater than 2 µM; in experiment [6], 0.756 µM; in experiment [7], 0.037 µM. The concentration for half-maximal inhibition (IC50) in experiment [3] turned out to be 0.011 µM; in experiment [8] it was 0.073 µM.
For the compound `C#Cc1cc(Nc2ncnc3cnc(N4CCC(NC(=O)C=C)CC4)nc23)ccc1Oc1ccc2c(c1)ncn2C` [Example I-02], the GI50 is 0.013 µM in experiment [1]; 0.037 µM in experiment [2]; 0.001 µM in experiment [4]; greater than 5 µM in experiment [5]; 3.01 µM in experiment [6]; 0.228 µM in experiment [7]. The half-inhibitory concentration (IC50) in experiment [3] amounted to 0.034 µM; in experiment [8], 0.628 µM.
As for `C=CC(=O)NC1CCN(c2ncc3ncnc(Nc4ccc(Oc5ccc6c(c5)ncn6C)c(Cl)c4)c3n2)CC1` [Example I-05], the 50% growth inhibitory concentration (GI50) in experiment [1] was 0.008 µM; in experiment [2], 0.021 µM; in experiment [4], 0.001 µM; in experiment [5], greater than 5 µM; in experiment [6], 1.88 µM; in experiment [7], 0.055 µM. Besides, the half-inhibitory concentration (IC50) came to 0.01 µM in experiment [3] and 0.315 µM in experiment [8].
Turning to `C=CC(=O)NC1CCN(c2ncc3ncnc(Nc4cc(F)c(Oc5ccn6ncnc6c5)c(Cl)c4)c3n2)CC1` [Example I-06], the concentration for 50% growth inhibition (GI50) in experiment [1] is 0.012 µM; in experiment [2], 0.031 µM; in experiment [4] it was 0.001 µM; in experiment [5] it was greater than 5 µM; in experiment [6], greater than 5 µM; in experiment [7], 0.215 µM. In addition, the values for the concentration for half-maximal inhibition (IC50) in experiment [3] and in experiment [8] were 0.044 µM and 0.773 µM, respectively.
In the case of `C=CC(=O)NC1CN(c2ncc3ncnc(Nc4ccc(Oc5ccc6c(c5)ncn6C)c(C)c4)c3n2)C1` [Example I-07], the concentration for 50% growth inhibition (GI50) is 0.017 µM in experiment [1]; 0.042 µM in experiment [2]; 0.003 µM in experiment [4]; greater than 5 µM in experiment [5]; 1.5 µM in experiment [6]; 0.073 µM in experiment [7]. Also, the results for the IC50 in experiment [3] and in experiment [8] were 0.02 µM and 1.17 µM, respectively.
Take `C=CC(=O)NC1(C)CCN(c2ncc3ncnc(Nc4ccc(Oc5ccc6c(c5)ncn6C)c(OC)c4)c3n2)CC1` [Example I-04]: the 50% growth inhibitory concentration (GI50) was 0.012 µM in experiment [1]; 0.032 µM in experiment [2]; 0.003 µM in experiment [4]; greater than 5 µM in experiment [5]; greater than 5 µM in experiment [6]; 0.099 µM in experiment [7]. The results for the IC50 in experiment [3] and in experiment [8] were 0.026 µM and 0.495 µM, respectively.
Turning to `C#Cc1cc(Nc2ncnc3cnc(NC4CCN(C(=O)C=C)CC4)nc23)ccc1Oc1ccc2c(c1)ncn2C` [Example I-15], the concentration for 50% growth inhibition (GI50) in experiment [1] is 0.013 µM; in experiment [2] it was 0.018 µM; in experiment [4] it was 0.002 µM; in experiment [5], 0.948 µM; in experiment [6], 0.425 µM; in experiment [7] it was 0.044 µM. Also, the IC50 in experiment [3] turned out to be 0.012 µM; in experiment [8], 0.086 µM.
For `C=CC(=O)N1CCC(Nc2ncc3ncnc(Nc4ccc(Oc5ccn6ncnc6c5)c(C)c4)c3n2)CC1` [Example I-16], the GI50 came out at 0.004 µM in experiment [1]; 0.01 µM in experiment [2]; 0.001 µM in experiment [4]; 0.66 µM in experiment [5]; 0.375 µM in experiment [6]; 0.019 µM in experiment [7]. The concentration for half-maximal inhibition (IC50) in experiment [3] was determined as 0.005 µM; in experiment [8], 0.023 µM.
With `C=CC(=O)NC1CN(c2ncc3ncnc(Nc4ccc(Oc5ccn6ncnc6c5)c(C)c4)c3n2)C1` [Example I-09], the GI50 in experiment [1] is 0.009 µM; in experiment [2] it was 0.029 µM; in experiment [4], 0.001 µM; in experiment [5], greater than 5 µM; in experiment [6] it was 2.24 µM; in experiment [7], 0.075 µM. Besides, the results for the IC50 in experiment [3] and in experiment [8] were 0.026 µM and 0.715 µM, respectively.
With `C=CC(=O)Nc1cccc(-n2c(=O)c(Oc3ccc(F)cc3F)cc3cnc(Nc4cnn(C)c4)nc32)c1` [WO 2019/046775 Comp. 2, reference compound], the GI50 stood at 0.022 µM in experiment [1]; 0.014 µM in experiment [2]; 0.003 µM in experiment [4]; 0.016 µM in experiment [5]; 0.013 µM in experiment [6]; 0.034 µM in experiment [7]. In addition, the IC50 was found to be 0.011 µM in experiment [3] and 0.007 µM in experiment [8].
As for `C=CC(=O)NC1CCN(c2ncc3ncnc(Nc4ccc(Oc5ccn6ncnc6c5)c(C)c4)c3n2)CC1` [Example I-11], the concentration for 50% growth inhibition (GI50) in experiment [1] was 0.008 µM; in experiment [2], 0.028 µM; in experiment [4] it was 0.002 µM; in experiment [5], 1.25 µM; in experiment [6], greater than 2 µM; in experiment [7], 0.172 µM. The IC50 in experiment [3] is 0.022 µM; in experiment [8], 0.521 µM.
With `Cc1cc(Nc2ncnc3ccc(NC4=NC(C)(C)CO4)cc23)ccc1Oc1ccn2ncnc2c1` [Tucatinib, reference compound], the GI50 in experiment [1] came to 0.058 µM; in experiment [2] it was 0.338 µM; in experiment [4], 0.01 µM; in experiment [5] it was 4.22 µM; in experiment [6], 2.97 µM; in experiment [7], 0.798 µM. The figures for the IC50 in experiment [3] and in experiment [8] were 0.004 µM and 1.41 µM, respectively.
